Experiments:
[1] = system: HT1080 (human fibrosarcoma cells); test: In vivo tumor growth inhibition, HT1080 xenograft; design: species or system BALB/c nude mice; conditions: both 1 and 3 mg/kg, oral gavage
Protocol: HT1080 (human fibrosarcoma cells): Female 6-8 weeks old BALB/c nude mice were inoculated subcutaneously on the right flank with HT1080 tumor cells (1×10^7) in 0.1 ml of EMEM medium without serum for tumor development. The treatments were started when the mean tumor size reached approximately 109 mm^3 at Day 4 post inoculation and continued until end of study by oral gavage dosing of HC-7366 at listed doses (vehicle, 0.3 mg/kg HC-7366 BID (two times per day), 1 mg/kg HC-7366 BID, 3 mg/kg HC-7366 BID, 0.6 mg/kg HC-7366 QD (one time per day), 2 mg/kg HC-7366 QD, or 6 mg/kg HC-7366 QD, FIGS. 6-7).
(§1) [formula] • 2.2.2 Tumor Measurements: The measurement of tumor size was conducted three times weekly with a caliper and recorded. The tumor volume (mm^3) was estimated using the formula: TV=a×b^2/2, where “a” and “b” is long and short diameters of a tumor, respectively. Tumor volume was calculated using the formula [tumor volume (mm^3)=π/6×length×width^2).
(§2) Regression was calculated using the formula=100×ΔT/T initial, if ΔT<0. Animals with 0 mm^3 tumor volume (no measurable tumor) for three consecutive measurements were considered as complete responders and animals with 50% tumor regressions were partial responders.

[2] = system: LoVo (human colorectal cancer cells); test: In vivo tumor growth inhibition, LoVo xenograft; design: species or system BALB/c nude mice; conditions: both 1 and 3 mg/kg twice daily oral
Protocol: LoVo (human colorectal cancer cells): Female 6-8 weeks old BALB/c nude mice were inoculated subcutaneously on the right flank with LoVo tumor cells (5×10^6) in 0.1 ml of EMEM medium without serum for tumor development. The treatments were started when the mean tumor size reached approximately 243 mm^3 at Day 16 post inoculation and continued until end of study by twice daily oral gavage dosing of HC-7366 at listed doses (vehicle, 0.3 mg/kg HC-7366, 1 mg/kg HC-7366, 3 mg/kg HC-7366, 10 mg/kg HC-7366, or 30 mg/kg HC-7366, FIGS. 8-9).
as §1, §2

[3] = system: TM00298 (human prostate cancer cells); test: In vivo tumor growth inhibition, TM00298 PDX; design: species or system NSG mice; conditions: both 3 mg/kg and 30 mg/kg twice daily oral
Protocol: TM00298 (human prostate cancer cells): Male 6-8 weeks old NSG mice were inoculated subcutaneously with 1 mm^3 TM00298 tumor fragments. The treatments were started when the mean tumor size reached approximately 123 mm^3 and continued until end of study by twice daily oral gavage dosing of HC-7366 at listed doses (vehicle, 3 mg/kg HC-7366, or 30 mg/kg HC-7366, FIG. 15).
as §1, §2

[4] = system: HIF1α and HIF2a in FaDu tumors; test: Tumor IHC, FaDu tumors; format: in vivo, BALB/c nude mice; conditions: end of study
Protocol: Immunohistochemical analysis was carried out on tumors that were collected at the end of the study described in Example 6. Formalin-fixed paraffin-embedded samples were sectioned at 5 μm thickness and mounted on Superfrost Plus microscope slides (Fisher Scientific). All immunohistochemical (IHC) staining was performed on Bond Rx auto-stainer (Leica Biosystems) using the conventional TSA-amplified detection system. Primary antibodies used were as follows: a-ASNS (Cell Signaling Technology #92479), a-PUMA (Cell Signaling Technology #98672), a-PSAT1 (Proteintech #10501-1-AP), a-PHGDH (Proteintech #14719-1-AP), HIF-1a-Novus Biologicals NB 100-479, HIF-2a-Novus Biologicals NB100-122SS, and GLUT-1-EMB Biosciences 07-1401. […]
(§3) Slides were imaged with Aperio Versa 200 (Leica Biosystems) whole-slide scanner using 10×/0.32NA objective, and the data were analyzed using custom-written macros in ImageJ/FIJI (NIH). Briefly, 150 μm of outer edges of the tumor sections and necrotic regions (determined by lack of 4′,6-diamidino-2-phenylindole (DAPI) signal or presence of condensed DNA) were eliminated from the analysis. […] Scans of immune-staining were processed to remove background, then total intensity value above appropriate threshold levels was measured and normalized to tissue area. […]

[5] = system: HIF2α and GLUT1 in 786-O tumors; test: Tumor IHC, 786-O tumors (DC101 combination study); format: in vivo, BALB/c nude mice; conditions: HC-7366 2 mg/kg twice daily, DC101 15 mg/kg twice a week
Protocol: 786-O (human renal cell carcinoma cancer cells): Female 6-8 weeks old BALB/c nude mice were inoculated subcutaneously on the right flank with 786-O tumor cells (5×10^6) in 0.1 ml of RPMI1640 medium without serum for tumor development. The treatments were started when the mean tumor size reached approximately 189 mm^3 after three weeks post inoculation and continued until end of study by twice daily oral gavage dosing of HC-7366 at listed doses (vehicle or 2 mg/kg HC-7366, FIGS. 52-54). For the DC101 combination study, DC101 (murine monoclonal anti-VEGFR2 antibody) was dosed at 15 mg/kg twice a week by intraperitoneal injection.
Immunohistochemical analysis was carried out on tumors that were collected at the end of the study described in Example 6. […]
as §3

MOLM-16 cells = test: Seahorse XF Mito stress test (OCR) and Glycolysis Stress Test (ECAR); format: cell-based, human; conditions: 0.001, 0.1 or 10 μM, 16 hrs; strongest effect at 0.1 μM
Protocol: MOLM-16 cells were treated with 0.001, 0.1 or 10 μM HC-7366 for 16 hrs and the Seahorse XF Glycolysis Stress Test (ECAR; extracellular acidification rate) and Seahorse XF Mito stress test (OCR; oxygen consumption rate) (Agilent technologies, CA, USA) were performed.

**Q.** Which tumor growth inhibition [1] does the source give for `CNC(=O)c1ncn2cc(-c3c(F)ccc(NS(=O)(=O)c4cc(Cl)cnc4OC)c3F)ncc12` [HC-7366, 6-(3-((5-chloro-2-methoxypyridine)-3-sulfonamido)-2,6-difluorophenyl)-N-methylimidazo[1,5-a]pyrazine-1-carboxamide] here?
**A.** up to 80%

**Q.** And the tumor growth inhibition [2]?
**A.** 94%

**Q.** What about the tumor growth inhibition [3] of the same molecule?
**A.** ~70%

**Q.** And the HIF1α protein levels [4]?
**A.** significantly reduced

**Q.** What about the HIF2a protein levels [4] of the same molecule?
**A.** significantly reduced

**Q.** What about the “GLUT1 levels by IHC” value [5] of the same molecule?
**A.** significantly reduced

**Q.** What about the “HIF2α by IHC” value ([5]; single agents and combination) of the same molecule?
**A.** significantly decreased

**Q.** What about the “OCR (oxygen consumption rate)” value (MOLM-16 cells) of the same molecule?
**A.** significantly reduced

**Q.** And the “glycolysis (ECAR)” value (MOLM-16 cells)?
**A.** significantly reduced

— patent publication US20250339426A1, “GCN2 MODULATOR FOR TREATING CANCER” (HIBERCELL, INC., priority 2022, published 2025)
